Laboratory results reported in publication PMC5218480 (PLoS ONE, 2017).

System: MV-4-11 cells
Assay: Gene expression microarray analysis (Affymetrix PrimeView) and GSEA
Assay type: cell-based, human
Parameters: RFU PODN (11730768_x_at) / Fold change /veh PODN (11730768_x_at) / RFU LINC00158 (11744669_a_at) / Fold change /veh LINC00158 (11744669_a_at) / RFU DUSP10 (11751237_a_at) / Fold change /veh DUSP10 (11751237_a_at) / RFU ID3 (11757404_x_at) / Fold change /veh ID3 (11757404_x_at) / RFU PLEKHG5 (11737974_s_at) / Fold change /veh PLEKHG5 (11737974_s_at) / RFU LRRC4B (11730491_at) / Fold change /veh LRRC4B (11730491_at) / RFU GIMAP4 (11747438_a_at) / Fold change /veh GIMAP4 (11747438_a_at) / RFU KRT8 (11758183_x_at) / Fold change /veh KRT8 (11758183_x_at) / RFU CNN1 (11734310_a_at) / Fold change /veh CNN1 (11734310_a_at) / RFU VPS37D (11726825_at) / Fold change /veh VPS37D (11726825_at) / RFU C10orf10 (11716522_x_at) / Fold change /veh C10orf10 (11716522_x_at) / RFU KIR2DL2 /// KIR2DL4 /// KIR2DL5A /// KIR2DL5B /// KIR2DS1 /// KIR2DS2 /// KIR2DS3 /// KIR2DS4 /// KIR3DL3 /// KIR3DL3 /// KIR3DS1 (11738374_at) / Fold change /veh KIR2DL2 /// KIR2DL4 /// KIR2DL5A /// KIR2DL5B /// KIR2DS1 /// KIR2DS2 /// KIR2DS3 /// KIR2DS4 /// KIR3DL3 /// KIR3DL3 /// KIR3DS1 (11738374_at) / RFU C1QL1 (11718748_at) / Fold change /veh C1QL1 (11718748_at) / RFU TMPRSS4 (11747572_a_at) / Fold change /veh TMPRSS4 (11747572_a_at) / RFU HAMP (11756126_x_at) / Fold change /veh HAMP (11756126_x_at) / RFU RNFT2 (11725882_a_at) / Fold change /veh RNFT2 (11725882_a_at) / RFU NR4A2 (11747474_a_at) / Fold change /veh NR4A2 (11747474_a_at) / RFU ABCC12 (11746883_a_at) / Fold change /veh ABCC12 (11746883_a_at) / RFU TMEM136 (11760407_x_at) / Fold change /veh TMEM136 (11760407_x_at) / RFU CLDN22 /// WWC2 (11732394_at) / Fold change /veh CLDN22 /// WWC2 (11732394_at) / RFU HLA-DPB1 (11760878_x_at) / Fold change /veh HLA-DPB1 (11760878_x_at) / RFU SPINT1 (11716480_a_at) / Fold change /veh SPINT1 (11716480_a_at) / RFU GAP43 (11754022_s_at) / Fold change /veh GAP43 (11754022_s_at) / RFU A4GNT (11735810_at) / Fold change /veh A4GNT (11735810_at) / RFU PRB3 (11715151_x_at) / Fold change /veh PRB3 (11715151_x_at) / RFU TUBB4B (11761932_at) / Fold change /veh TUBB4B (11761932_at) / RFU CAPN14 (11732068_a_at) / Fold change /veh CAPN14 (11732068_a_at) / RFU TMCC2 (11721928_a_at) / Fold change /veh TMCC2 (11721928_a_at) / RFU IRGQ (11745062_a_at) / Fold change /veh IRGQ (11745062_a_at) / RFU FAM174B (11720279_a_at) / Fold change /veh FAM174B (11720279_a_at) / RFU TMPRSS4 (11748680_a_at) / Fold change /veh TMPRSS4 (11748680_a_at) / RFU FAM212B (11763350_a_at) / Fold change /veh FAM212B (11763350_a_at) / RFU PLEKHG5 (11743358_a_at) / Fold change /veh PLEKHG5 (11743358_a_at) / RFU ZSCAN30 (11745921_a_at) / Fold change /veh ZSCAN30 (11745921_a_at) / RFU CMKLR1 (11741424_a_at) / Fold change /veh CMKLR1 (11741424_a_at) / RFU LOC101060620 /// MAPK8IP1 (11723275_at) / Fold change /veh LOC101060620 /// MAPK8IP1 (11723275_at) / RFU SPTSSB (11747773_x_at) / Fold change /veh SPTSSB (11747773_x_at) / RFU PRSS12 (11739890_at) / Fold change /veh PRSS12 (11739890_at) / RFU BIN1 (11741810_x_at) / Fold change /veh BIN1 (11741810_x_at) / RFU WNT11 (11732464_a_at) / Fold change /veh WNT11 (11732464_a_at) / RFU C10orf10 (11716521_a_at) / Fold change /veh C10orf10 (11716521_a_at) / RFU C5orf56 (11738089_at) / Fold change /veh C5orf56 (11738089_at) / RFU CYB561 (11721691_x_at) / Fold change /veh CYB561 (11721691_x_at) / RFU ANKRD19P (11752326_a_at) / Fold change /veh ANKRD19P (11752326_a_at) / RFU OR2T12 /// OR2T33 /// OR2T8 (11738714_s_at) / Fold change /veh OR2T12 /// OR2T33 /// OR2T8 (11738714_s_at) / RFU VCAN (11748164_a_at) / Fold change /veh VCAN (11748164_a_at) / RFU JSRP1 (11732532_at) / Fold change /veh JSRP1 (11732532_at) / RFU KRTAP10-11 (11738290_x_at) / Fold change /veh KRTAP10-11 (11738290_x_at) / RFU MYO3A (11730013_a_at) / Fold change /veh MYO3A (11730013_a_at) / RFU EBF3 (11725865_a_at) / Fold change /veh EBF3 (11725865_a_at) / RFU CAMK2N1 (11719241_x_at) / Fold change /veh CAMK2N1 (11719241_x_at) / RFU C5orf56 (11738088_a_at) / Fold change /veh C5orf56 (11738088_a_at) / RFU OLFML3 (11715873_a_at) / Fold change /veh OLFML3 (11715873_a_at) / RFU LOC100653217 /// NTM (11731650_a_at) / Fold change /veh LOC100653217 /// NTM (11731650_a_at) / RFU MAPK11 (11762145_a_at) / Fold change /veh MAPK11 (11762145_a_at) / RFU FIZ1 (11724087_x_at) / Fold change /veh FIZ1 (11724087_x_at) / RFU OASL (11726364_x_at) / Fold change /veh OASL (11726364_x_at) / RFU SOX15 (11748057_x_at) / Fold change /veh SOX15 (11748057_x_at) / RFU CD79A (11719716_a_at) / Fold change /veh CD79A (11719716_a_at) / RFU HIST1H1D (11736915_at) / Fold change /veh HIST1H1D (11736915_at) / RFU CASKIN2 (11723855_a_at) / Fold change /veh CASKIN2 (11723855_a_at) / RFU LOC730098 (11760151_x_at) / Fold change /veh LOC730098 (11760151_x_at) / RFU OR4N2 (11742367_at) / Fold change /veh OR4N2 (11742367_at) / RFU PRRT2 (11749266_a_at) / Fold change /veh PRRT2 (11749266_a_at) / RFU SNX32 (11753110_a_at) / Fold change /veh SNX32 (11753110_a_at) / RFU CDHR5 (11726645_a_at) / Fold change /veh CDHR5 (11726645_a_at) / RFU RCAN1 (11760418_a_at) / Fold change /veh RCAN1 (11760418_a_at) / RFU FAM167A (11723789_a_at) / Fold change /veh FAM167A (11723789_a_at) / RFU FAM26E (11764081_at) / Fold change /veh FAM26E (11764081_at) / RFU ISYNA1 (11749810_s_at) / Fold change /veh ISYNA1 (11749810_s_at) / RFU ACY1 (11761880_at) / Fold change /veh ACY1 (11761880_at) / RFU 11764098_at / Fold change /veh 11764098_at / RFU SAMD14 (11745864_x_at) / Fold change /veh SAMD14 (11745864_x_at) / RFU NPB (11741838_a_at) / Fold change /veh NPB (11741838_a_at) / RFU TMPRSS6 (11731388_a_at) / Fold change /veh TMPRSS6 (11731388_a_at) / RFU KRTAP10-2 (11738614_at) / Fold change /veh KRTAP10-2 (11738614_at) / RFU ARHGAP8 /// PRR5-ARHGAP8 (11727945_x_at) / Fold change /veh ARHGAP8 /// PRR5-ARHGAP8 (11727945_x_at) / RFU KRTAP5-7 /// NADSYN1 (11734609_at) / Fold change /veh KRTAP5-7 /// NADSYN1 (11734609_at) / RFU RASL12 (11751679_a_at) / Fold change /veh RASL12 (11751679_a_at) / RFU CDKN2B (11736163_a_at) / Fold change /veh CDKN2B (11736163_a_at) / RFU PRF1 (11729649_at) / Fold change /veh PRF1 (11729649_at) / RFU, ZNF638 /// ZNF638-IT1 / Fold change vs veh, ZNF638 /// ZNF638-IT1 / RFU, PANK3 / Fold change vs veh, PANK3 / RFU, SH3YL1 / Fold change vs veh, SH3YL1 / RFU, ZEB2 / Fold change vs veh, ZEB2 / RFU, NRIP1 / Fold change vs veh, NRIP1 / RFU, PTTG1IP / Fold change vs veh, PTTG1IP / RFU, CAPN2 / Fold change vs veh, CAPN2 / RFU, MED14 / Fold change vs veh, MED14 / RFU, SNORA58 / Fold change vs veh, SNORA58 / RFU, C1orf63 / Fold change vs veh, C1orf63 / RFU, LRRFIP1 / Fold change vs veh, LRRFIP1 / RFU, NDUFAF7 / Fold change vs veh, NDUFAF7 / RFU, SLC12A2 / Fold change vs veh, SLC12A2 / RFU, IBTK / Fold change vs veh, IBTK / RFU, ESF1 / Fold change vs veh, ESF1 / Fold change vs veh, TMEM50B / RFU, TAOK1 / Fold change vs veh, TAOK1 / RFU, ACBD3 / Fold change vs veh, ACBD3 / RFU, TMA16 / Fold change vs veh, TMA16 / RFU, RWDD3 / Fold change vs veh, RWDD3 / RFU, BCAT1 / Fold change vs veh, BCAT1 / RFU, EDEM3 / Fold change vs veh, EDEM3 / RFU, TMEM33 / Fold change vs veh, TMEM33 / RFU, WDR75 / Fold change vs veh, WDR75 / RFU, AHCTF1 / Fold change vs veh, AHCTF1 / RFU, TFRC / Fold change vs veh, TFRC / RFU, ZDHHC17 / Fold change vs veh, ZDHHC17 / RFU, NOM1 / Fold change vs veh, NOM1 / RFU, ARL8B / Fold change vs veh, ARL8B / RFU, ZBTB11 / Fold change vs veh, ZBTB11 / RFU, TAMM41 / Fold change vs veh, TAMM41 / RFU, KIAA1704 /// LOC100996395 / Fold change vs veh, KIAA1704 /// LOC100996395 / RFU, ING1 / Fold change vs veh, ING1 / RFU, TRMT61B / Fold change vs veh, TRMT61B / RFU, FUBP3 / Fold change vs veh, FUBP3 / RFU, TP53 / Fold change vs veh, TP53 / RFU, TNKS2 / Fold change vs veh, TNKS2 / RFU, ZFP14 / Fold change vs veh, ZFP14 / RFU, ACTR2 / Fold change vs veh, ACTR2 / RFU, PPP3R1 / Fold change vs veh, PPP3R1 / RFU, PIK3R1 / Fold change vs veh, PIK3R1 / RFU, HNRNPA1 / Fold change vs veh, HNRNPA1 / RFU, RNF170 / Fold change vs veh, RNF170 / RFU, ZNF28 / Fold change vs veh, ZNF28 / RFU, RNGTT / Fold change vs veh, RNGTT / RFU, OGT / Fold change vs veh, OGT / RFU, BRD1 / Fold change vs veh, BRD1 / RFU, MARS / Fold change vs veh, MARS / RFU, ZNF655 / Fold change vs veh, ZNF655 / RFU, FAHD1 / Fold change vs veh, FAHD1 / RFU, BDP1 / Fold change vs veh, BDP1 / RFU, LRRCC1 / Fold change vs veh, LRRCC1 / RFU, ARID1A / Fold change vs veh, ARID1A / RFU, ZNF146 / Fold change vs veh, ZNF146 / RFU, ZNF330 / Fold change vs veh, ZNF330 / RFU, GPN3 / Fold change vs veh, GPN3 / RFU, C9orf123 / Fold change vs veh, C9orf123 / RFU, N4BP2L2 / Fold change vs veh, N4BP2L2 / RFU, ARFIP1 / Fold change vs veh, ARFIP1 / RFU, FAM179B / Fold change vs veh, FAM179B / RFU, BCL10 / Fold change vs veh, BCL10 / RFU, UHRF1BP1L / Fold change vs veh, UHRF1BP1L / RFU, BET1 / Fold change vs veh, BET1 / RFU, CNOT2 / Fold change vs veh, CNOT2 / RFU, ZNF268 / Fold change vs veh, ZNF268 / Fold change vs veh, ZNF507 / RFU, DGCR2 / Fold change vs veh, DGCR2 / RFU, WDSUB1 / Fold change vs veh, WDSUB1 / Fold change vs veh, HSP90B1 /// MIR3652 / RFU, ADSS / Fold change vs veh, ADSS / RFU, GK / Fold change vs veh, GK / RFU, ZNF148 / Fold change vs veh, ZNF148 / RFU, TAF9 / Fold change vs veh, TAF9 / RFU, SLC1A5 / Fold change vs veh, SLC1A5 / RFU, SLMO2 / Fold change vs veh, SLMO2 / RFU, ABCC4 / Fold change vs veh, ABCC4 / RFU, LOC101060439 /// RAP1B / Fold change vs veh, LOC101060439 /// RAP1B / RFU, RFX7 / Fold change vs veh, RFX7 / RFU, GTPBP10 / Fold change vs veh, GTPBP10 / RFU, CNEP1R1 / Fold change vs veh, CNEP1R1 / RFU, BIVM-ERCC5 /// ERCC5 / Fold change vs veh, BIVM-ERCC5 /// ERCC5 / RFU, ILF3 / Fold change vs veh, ILF3 / RFU 11762660_at / Fold change /veh 11762660_at / RFU VCAN (11757783_s_at) / Fold change /veh VCAN (11757783_s_at) / RFU DDX43 (11728927_at) / Fold change /veh DDX43 (11728927_at) / RFU KRT8 (11758188_x_at) / Fold change /veh KRT8 (11758188_x_at) / RFU NKD1 (11759106_at) / Fold change /veh NKD1 (11759106_at) / RFU SRD5A1 (11742802_a_at) / Fold change /veh SRD5A1 (11742802_a_at) / RFU TPSAB1 /// TPSB2 (11721975_s_at) / Fold change /veh TPSAB1 /// TPSB2 (11721975_s_at) / RFU GSTM3 (11746129_a_at) / Fold change /veh GSTM3 (11746129_a_at) / RFU IL23R (11737362_x_at) / Fold change /veh IL23R (11737362_x_at) / RFU TMEM51 (11727254_a_at) / Fold change /veh TMEM51 (11727254_a_at) / RFU PIWIL2 (11732686_x_at) / Fold change /veh PIWIL2 (11732686_x_at) / RFU ORM1 (11744905_x_at) / Fold change /veh ORM1 (11744905_x_at) / RFU CCDC152 (11743942_at) / Fold change /veh CCDC152 (11743942_at) / RFU ECM1 (11717891_a_at) / Fold change /veh ECM1 (11717891_a_at) / RFU IL23R (11748794_a_at) / Fold change /veh IL23R (11748794_a_at) / RFU TNFAIP8L3 (11732012_x_at) / Fold change /veh TNFAIP8L3 (11732012_x_at) / RFU MBOAT4 (11741988_at) / Fold change /veh MBOAT4 (11741988_at) / RFU 11764193_at / Fold change /veh 11764193_at / RFU TMEM53 (11763286_at) / Fold change /veh TMEM53 (11763286_at) / RFU MAGEB2 (11727129_at) / Fold change /veh MAGEB2 (11727129_at) / RFU TMEM200A (11744735_a_at) / Fold change /veh TMEM200A (11744735_a_at) / RFU CCDC152 (11751479_a_at) / Fold change /veh CCDC152 (11751479_a_at) / RFU FAM211A (11726209_a_at) / Fold change /veh FAM211A (11726209_a_at) / RFU RGS16 (11746705_a_at) / Fold change /veh RGS16 (11746705_a_at) / RFU VCAN (11755009_s_at) / Fold change /veh VCAN (11755009_s_at) / RFU RHOB (11743442_s_at) / Fold change /veh RHOB (11743442_s_at) / RFU RGS16 (11720943_a_at) / Fold change /veh RGS16 (11720943_a_at) / RFU RGS16 (11720944_at) / Fold change /veh RGS16 (11720944_at) / RFU, VPS4B / Fold change vs veh, VPS4B / RFU, CREB1 / Fold change vs veh, CREB1 / RFU, DNAJC13 / Fold change vs veh, DNAJC13 / RFU, GNAQ / Fold change vs veh, GNAQ / RFU, CDK5R1 / Fold change vs veh, CDK5R1 / RFU, ZRANB3 / Fold change vs veh, ZRANB3 / RFU, CUL4A / Fold change vs veh, CUL4A / RFU, CCNY / Fold change vs veh, CCNY / RFU, UFL1 / Fold change vs veh, UFL1 / RFU, COG3 / Fold change vs veh, COG3 / RFU, DIAPH2 / Fold change vs veh, DIAPH2 / RFU, SKA2 / Fold change vs veh, SKA2 / RFU, AFF3 / Fold change vs veh, AFF3 / RFU, LMF1 / Fold change vs veh, LMF1 / RFU, IPO11 / Fold change vs veh, IPO11 / RFU, DFFB / Fold change vs veh, DFFB / RFU, FOXP1 / Fold change vs veh, FOXP1 / RFU, CARD8 / Fold change vs veh, CARD8 / RFU, STRN3 / Fold change vs veh, STRN3 / RFU, ADK / Fold change vs veh, ADK / RFU, RASSF2 / Fold change vs veh, RASSF2 / RFU, WIPF1 / Fold change vs veh, WIPF1 / RFU, LARP1B / Fold change vs veh, LARP1B / RFU, RASA1 / Fold change vs veh, RASA1 / RFU, RB1 / Fold change vs veh, RB1 / RFU, PPFIA1 / Fold change vs veh, PPFIA1 / RFU, MAT2A / Fold change vs veh, MAT2A / RFU, CCT5 / Fold change vs veh, CCT5 / RFU, WDR92 / Fold change vs veh, WDR92 / RFU, CUX1 / Fold change vs veh, CUX1 / RFU, TTC7A / Fold change vs veh, TTC7A / RFU, TMEM135 / Fold change vs veh, TMEM135 / RFU, DEPTOR / Fold change vs veh, DEPTOR / RFU, CPM / Fold change vs veh, CPM / RFU, DNAJB6 / Fold change vs veh, DNAJB6 / RFU, CACNA2D3 / Fold change vs veh, CACNA2D3 / RFU, DTX4 / Fold change vs veh, DTX4 / RFU, TFCP2 / Fold change vs veh, TFCP2 / RFU, GMCL1 /// GMCL1P1 / Fold change vs veh, GMCL1 /// GMCL1P1 / RFU, AEBP2 / Fold change vs veh, AEBP2 / RFU, SNHG1 /// SNORD22 /// SNORD25 /// SNORD26 /// SNORD27 /// SNORD28 /// SNORD29 /// SNORD31 / Fold change vs veh, SNHG1 /// SNORD22 /// SNORD25 /// SNORD26 /// SNORD27 /// SNORD28 /// SNORD29 /// SNORD31 / Fold change (Aza/veh), C12orf56 (ProbeSet 11735607_a_at) / Fold change (ACY-1035/veh), C12orf56 (ProbeSet 11735607_a_at) / Fold change (Aza/veh), FGFR1OP (ProbeSet 11751329_s_at) / Fold change (ACY-1035/veh), FGFR1OP (ProbeSet 11751329_s_at) / Fold change (Aza/veh), VPS36 (ProbeSet 11739960_a_at) / Fold change (ACY-1035/veh), VPS36 (ProbeSet 11739960_a_at) / RFU SYPL1 (11715823_x_at) / Fold change /veh SYPL1 (11715823_x_at) / RFU IGFBP7 (11715501_s_at) / Fold change /veh IGFBP7 (11715501_s_at) / RFU REEP3 (11722064_at) / Fold change /veh REEP3 (11722064_at) / RFU IGLL1 (11728026_x_at) / Fold change /veh IGLL1 (11728026_x_at): dose or concentration left out as unconfirmed
Settings: MV-4-11 cells, 48 hours

## Nc1ccc(-c2cccs2)cc1NC(=O)c1ccc2c(c1)cc(C1CC1)n2CCN1CCOCC1 [ACY-1035]
  RFU FIZ1 (11724087_x_at): 31.13 RFU
